Measurements taken from PubChem BioAssay (NCI).
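96-well plates; 48 h exposure; 5 concentrations. Endpoints by linear interpolation between flanking doses. Not reached: highest tested concentration assigned. GI50 = concentration required for 50% inhibition of growth. TGI: total growth inhibition.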

Key:
Assay in all cases: DTP human tumour cell line panel, 48 h
[1] = system: SF-295 CNS
[2] = system: HL-60(TB) leukemia
[3] = system: SF-268 CNS
[4] = system: CCRF-CEM leukemia
[5] = system: OVCAR-8 ovarian
[6] = system: HOP-62 NSCLC
[7] = system: UACC-62 melanoma
[8] = system: SK-OV-3 ovarian
[9] = system: OVCAR-4 ovarian
[10] = system: NCI-H522 lung

Row | Compound | GI50 [1] | TGI [1] | GI50 [2] | TGI [2] | GI50 [3] | TGI [3] | GI50 [4] | TGI [4] | GI50 [5] | TGI [5] | GI50 [6] | TGI [6] | GI50 [7] | TGI [7] | GI50 [8] | TGI [8] | GI50 [9] | TGI [9] | GI50 [10] | TGI [10]
1 | Clc1ccc(Nc2nc(Nc3ccccc3)nc(Nc3ccc(-c4cc(-c5ccc(Cl)cc5)on4)cc3)n2)cc1 | 12.6 µM | 77.6 µM | 51.5 µM | > 100 µM | 43.4 µM | > 100 µM | 11.8 µM | > 100 µM | 21.4 µM | > 100 µM | 18.4 µM | > 100 µM | 16.7 µM | 72.4 µM | 29 µM | > 100 µM | 15.4 µM | > 100 µM | 16.2 µM | 36.7 µM
2 | N#Cc1ccccc1C#C/C=C\C#Cc1ccccc1N | 1.28 µM | 5.01 µM | 4.22 µM | > 100 µM | 9.12 µM | > 56.2 µM | 1.6 µM | > 100 µM | 7.27 µM | > 30 µM |  |  | 3.03 µM | > 33.6 µM | 3.22 µM | > 100 µM | 16.1 µM | > 100 µM | 2.94 µM | 
3 | CC(=O)Nc1ccc(C(=O)NN2C(=O)C(Cl)C2c2cccc([N+](=O)[O-])c2)cc1 (stereo not drawn) |  | > 100 µM |  | > 100 µM |  | > 100 µM |  | > 100 µM |  | > 100 µM |  | > 100 µM |  | > 100 µM |  | > 100 µM |  |  |  | > 100 µM
4 | O=S(=O)(O)c1ccc2c(N=Nc3ccc(N=Nc4ccccc4)cc3)c(O)c(S(=O)(=O)O)cc2c1 |  | > 100 µM |  | > 100 µM |  | > 100 µM |  | > 100 µM |  | > 100 µM |  | > 100 µM |  | > 100 µM |  | > 100 µM |  | > 100 µM |  | > 100 µM
5 | Nc1cc(S(=O)(=O)O)cc2ccc(S(=O)(=O)O)cc12 |  | > 100 µM |  | > 100 µM |  | > 100 µM |  | > 100 µM |  | > 100 µM |  | > 100 µM |  | > 100 µM |  | > 100 µM |  | > 100 µM |  | > 100 µM
6 | O=C(Nc1ccc(-n2ccc3c(NC(=O)c4ccccc4)nccc32)cc1)Nc1cccc(C(F)(F)F)c1 | 3.75 µM | 18.8 µM | 3.92 µM | 14.2 µM | 10.5 µM | 30.2 µM | 1.27 µM | 5.55 µM | 4.35 µM | 17.9 µM | 5.65 µM | 19.1 µM | 7.36 µM | 20.4 µM |  |  | 2.65 µM | 10.5 µM | 1.69 µM | 15.3 µM
7 | C[N+]1(CCC(=O)c2ccccc2)CCC2CCC(C2)C1 (stereo not drawn) |  | > 100 µM |  | > 100 µM |  | > 100 µM |  | > 100 µM |  | > 100 µM |  | > 100 µM |  | > 100 µM |  | > 100 µM |  | > 100 µM |  | > 100 µM
8 | CC1=CC(O)C(C(O)(C(F)(F)F)C(F)(F)F)C(C)(C)C1 (stereo not drawn) |  | > 10 µM |  | > 10 µM |  | > 10 µM |  | > 10 µM |  | > 10 µM |  | > 10 µM |  | > 10 µM |  | > 10 µM |  | > 10 µM |  | > 10 µM
9 | Cc1oc(N)c(S(=O)(=O)c2cc3ccccc3n(O)c2=N)c1C |  | > 100 µM |  |  |  | > 100 µM |  |  |  | > 100 µM |  | > 100 µM |  | > 100 µM |  | > 100 µM |  | > 100 µM |  | > 100 µM
10 | CC1=C[C@@H](C)C[C@]2(C)CC[C@H](O2)[C@]23CC[C@](CO)(C[C@H](O2)[C@@H]2O[C@@](C)(CC2=O)[C@@H](O)[C@H]2CC[C@@]4(CCC[C@@H](O4)[C@H](C)C(=O)O[C@H]4C[C@H]([C@]5(O)OCC[C@H](C)[C@@H]5O)O[C@H]4C=C1)O2)O3 |  | > 10 µM |  | 9.73 µM |  | 0.0252 µM |  | > 9.53 µM |  | > 4.19 µM |  | 0.041 µM |  | > 9.63 µM |  | 0.159 µM |  | > 10 µM |  | > 2.1 µM
11 | CC1C(=O)c2cc3c(cc2CCN(C)Cc2c1ccc1c2OCO1)OCO3 (stereo not drawn) | > 75 µg/mL | > 75 µg/mL | 21.2 µg/mL | > 75 µg/mL | > 75 µg/mL | > 75 µg/mL | 22 µg/mL | > 75 µg/mL | > 75 µg/mL | > 75 µg/mL | > 75 µg/mL | > 75 µg/mL | 45.2 µg/mL | > 75 µg/mL | > 75 µg/mL | > 75 µg/mL | 44.4 µg/mL | > 75 µg/mL | 34.6 µg/mL | > 75 µg/mL
12 | N=c1ccc2nc(N)nn(O)c-2c1 |  |  |  | > 100 µM |  | > 100 µM |  | > 100 µM |  | > 100 µM |  | > 100 µM |  | > 100 µM |  | > 100 µM |  | > 100 µM |  | > 100 µM
13 | CC1(C(=O)O)C[C@](C)(C(=O)OCc2ccccc2)C[C@](C)(C(=O)OCc2ccccc2)C1 (stereo partly drawn) |  | 61.9 µM |  | 53.9 µM |  | > 100 µM |  | > 100 µM |  | > 100 µM |  | > 100 µM |  | 45.4 µM |  | > 100 µM |  | > 100 µM |  | 60 µM
14 | CCOC(=O)c1c(-c2cccc(Cl)c2)c(C(=O)OC)c(C)c2sc(C=O)nc12 |  | 32.5 µM |  | 44.9 µM |  | 38.6 µM |  | 37 µM |  | 41.9 µM |  | 28.8 µM |  | 32.2 µM |  | 92.2 µM |  | 40.3 µM |  | 32.5 µM
15 | OCCCSCCO |  | > 100 µM |  | > 100 µM |  | > 100 µM |  | > 100 µM |  | > 100 µM |  | > 100 µM |  | > 100 µM |  | > 100 µM |  | > 100 µM |  | > 100 µM
16 | Cc1ccc2nc(-c3ccc(NC(=O)c4ccc(N)cc4)c(S(=O)(=O)O)c3)sc2c1 |  | > 100 µM |  | > 100 µM |  | > 100 µM |  | > 100 µM |  | > 100 µM |  | > 100 µM |  | > 100 µM |  | > 100 µM |  | > 100 µM |  | > 100 µM
17 | Cc1cc2ccc(OC(=O)c3ccc(N=C(N)N)cc3)cc2oc1=O |  | > 100 µM |  | 45.8 µM |  | 73.8 µM |  | > 100 µM |  | > 100 µM |  | 48.5 µM |  | 79.1 µM |  | 46.4 µM |  | 46.6 µM |  | 45.2 µM
18 | O=C(CC(c1ccccc1)C1C(=O)NC(=S)NC1=O)c1ccc([N+](=O)[O-])cc1 (stereo not drawn) |  | > 100 µM |  | > 100 µM |  | > 100 µM |  | > 100 µM |  | > 100 µM |  | > 100 µM |  | > 100 µM |  | > 100 µM |  | > 100 µM |  | > 100 µM
19 | CS(C)(=O)=Nn1c(=O)n2n(c1=O)C1c3ccccc3C2c2ccccc21 |  | > 100 µM |  | > 100 µM |  |  |  | > 100 µM |  | > 100 µM |  | > 100 µM |  | > 100 µM |  | > 100 µM |  |  |  | > 100 µM
20 | CCN1CCN(c2nc3ccccc3nc2C(=O)c2ccc(OC)c(OC)c2)CC1 |  | 30 µM |  | > 100 µM |  | > 100 µM |  | 46 µM |  | 29.9 µM |  | > 100 µM |  | > 100 µM |  | 24.5 µM |  | 25.7 µM |  | 27.9 µM
21 | Cc1ccc(OCC2=NC3S/C(=C/c4ccc([N+](=O)[O-])o4)C(=O)N3N2)cc1 (stereo not drawn) |  | 30.4 µM |  | 5.34 µM |  | 14.9 µM |  | 35.3 µM |  | 14.3 µM |  | 33.7 µM |  |  |  | 29.9 µM |  | 7.86 µM |  | 4.37 µM
22 | COC(=O)C1CC23C4=C(CCC41)CCC1CN4CC(C)C(CC(OC(C)=O)C12COC(C)=O)C43O (stereo not drawn) |  | > 100 µM |  | > 100 µM |  | > 100 µM |  | > 100 µM |  | > 100 µM |  | > 100 µM |  | > 100 µM |  | > 100 µM |  | > 100 µM |  | > 100 µM
23 | Cc1cc(C)c2c(=O)n(CC(O)CN3CCN(CCOCCO)CC3)sc2n1 (stereo not drawn) |  | > 100 µM |  | 54.4 µM |  | 39.8 µM |  | > 100 µM |  | 39.9 µM |  | 70.6 µM |  | 32.7 µM |  | 60.7 µM |  | 34.5 µM |  | 32.1 µM
24 | COc1ccc(-c2nn(-c3ccc(NC(=O)c4cc(Cl)cc(Cl)c4)cc3)cc2-c2ccncc2)cc1Cl | 0.695 µM | 5.49 µM | 3.41 µM | > 100 µM | > 100 µM | > 100 µM |  |  | > 100 µM | > 100 µM | 8.12 µM | > 100 µM | 5.27 µM | > 100 µM |  |  | > 100 µM | > 100 µM | 5.11 µM | > 100 µM
25 | O=C(Cc1csc2nc(-c3ccc(Cl)cc3)cn12)N/N=C/c1ccccc1O | 5.21 µM | > 100 µM | 1.66 µM | 8.51 µM | 1.26 µM | 54.8 µM | 0.736 µM | > 100 µM | 3.01 µM | 78.9 µM | 4.67 µM | > 100 µM | 3.42 µM | 38.9 µM | 5.05 µM | > 100 µM | 1.5 µM | > 100 µM |  | 
26 | COc1cccc(/C=N/[N-]C(N)=O)c1[O-].[Ni+2].[OH3+] |  | 2.36 µM | 0.111 µM | 0.86 µM |  | 0.945 µM |  | 1.48 µM |  | 1.66 µM |  | 2.52 µM |  | 1.35 µM |  | 1.69 µM |  | 1.01 µM |  | 0.25 µM
27 | COc1cc(C2c3cc4c(cc3[C@@H](Nc3ccc(Oc5ccccc5)cc3)C3COC(=O)[C@H]23)OCO4)cc(OC)c1O (stereo partly drawn) |  | > 100 µM |  | 2.23 µM |  | > 100 µM |  | 4.38 µM |  | > 100 µM |  | 4.15 µM |  | 22.9 µM |  | > 52 µM |  | > 100 µM |  | > 78.9 µM
28 | O=C(/C=C1\N=C(c2ccccc2)N(c2nc3c(Cl)cc(Cl)cc3s2)C1=O)/C=C/c1ccccc1 |  | > 100 µM |  | > 100 µM |  | > 100 µM |  | > 100 µM |  | > 100 µM |  | > 100 µM |  | > 100 µM |  | > 100 µM |  | > 100 µM |  | > 100 µM
